Source: US6265423A, “Aromatic polycyclic retinoid-type derivatives, method for preparing same, and use thereof for making pharmaceutical and cosmetic compositions” (priority 1996, dated 2001)

What was measured:
[1] = system: T-47D human mammary cancer cells; assay: MTT test, proliferation of T-47D; format: cell-based; conditions: for activity at 100 µM / activity at 1 µM / activity at 0.01 µM: Homo sapiens, T47D, T-47D, 72 h, control = 100%, read-out: level of proliferation; for activity at 100 µM: 10^-4 M; for activity at 1 µM: 10^-6 M; for activity at 0.01 µM: 10^-8 M
Summary of the method: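 Cells grown at 37° C in MEM/5% FCS were plated for 24 h, then treated at 10^-8, 10^-6 or 10^-4 M. Each condition was run in 6 duplicates.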

[2] = system: A549 human pulmonary cancer cells; assay: MTT test, proliferation of A549; format: cell-based; conditions: for activity at 100 µM / activity at 1 µM / activity at 0.01 µM: Homo sapiens, 72 h, control = 100%, read-out: level of proliferation; for activity at 100 µM: A549, 10^-4 M; for activity at 1 µM: A549, 10^-6 M; for activity at 0.01 µM: A549, 10^-8 M; for effect on cellular increase, A549 (in words): MTT test
Gal4-RARα = assay: Transactivation, chimerical receptor Gal4-RARα (transitory transfection of HeLa); format: cell-based; conditions: 10^-6 M; 100% = TTNPB 10^-8 M
Gal4-RARβ = assay: Transactivation, chimerical receptor Gal4-RARβ (transitory transfection of HeLa); format: cell-based; conditions: 10^-6 M; 100% = TTNPB 10^-8 M
RARα-ERcassette = assay: Transactivation, chimerical receptor RARα-ERcassette (HeLa); format: cell-based; conditions: TTNPB 10^-8 M = 100
Summary of the method: (§1)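 First, HeLa cells receive the chimeric RAR construct, whose native DNA-binding domain is exchanged for the oestrogen receptor's, plus an ERE-luciferase reporter and β-galactosidase control, by calcium phosphate co-precipitation. After 24 h, cells are incubated with effectors for 16 h before luciferase measurement.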

RARγ-ERcassette = assay: Transactivation, chimerical receptor RARγ-ERcassette (HeLa); format: cell-based; conditions: TTNPB 10^-8 M = 100
Summary of the method: as §1

[3] = system: response element RARE of RARβ gene, endogenic retinoic receptors, HRLN lineage; assay: HRLN transactivation (RARE-luciferase, stably transfected HeLa); format: cell-based; conditions: for Emax: Homo sapiens, HeLa, read-out: HRLN transactivation, E max
Summary of the method: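 Luciferase reporter read-out, in duplicate and shielded from light, in phenol red-free DMEM plus 3% dextran-charcoal-stripped FCS. The HeLa-derived line expresses endogenous retinoid receptors and stably harbours luciferase under the natural RARβ-gene RARE (RARE3-tk-Luc).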

[4] = system: Gal4-RAR (RARα, RARβ, RARγ); assay: Chimerical receptors Gal4-RAR, overall profile; format: cell-based
[5] = system: A-427 human pulmonary cancer cells; assay: MTT test, proliferation of A-427; conditions: for activity at 0.01 µM / activity at 1 µM / activity at 100 µM: Homo sapiens, A-427, 72 h, read-out: level of proliferation; for effect on cellular increase, A-427 (in words): MTT test

C/C(=C/c1ccc2c(c1)C(C)(C)CCC2(C)C)c1ccc(C(=O)O)cn1 [CB38416, (Z) 2-[1-(5,6,7,8-tetrahydro-5,5,8,8-tetramethyl-2-naphthalenyl)-2-propenyl]pyridinyl-5-carboxylic acid]
activity at 100 µM [1]: 42.5% | activity at 1 µM [1]: 82.6% | activity at 0.01 µM [1]: 119% | activity at 100 µM [2]: 109% | activity at 1 µM [2]: 105% | activity at 0.01 µM [2]: 126% | GAL4-RAR RARα transactivation (Gal4-RARα): 58% | GAL4-RAR RARβ transactivation (Gal4-RARβ): 51% | RAR-ERcassette RARα transactivation (RARα-ERcassette; 10^-6 M): 65% | RAR-ERcassette RARα transactivation (RARα-ERcassette; 10^-7 M): 7% | RAR-ERcassette RARα transactivation (RARα-ERcassette; 10^-8 M): 0% | RAR-ERcassette RARγ transactivation (RARγ-ERcassette; 10^-6 M): 62% | RAR-ERcassette RARγ transactivation (RARγ-ERcassette; 10^-7 M): 14% | RAR-ERcassette RARγ transactivation (RARγ-ERcassette; 10^-8 M): 4% | HRLN transactivation (in words) [3]: induce a transactivation close to that of TTNPB | Emax [3]: 81% | Gal-RAR agonist profile (in words) [4]: partial agonist for RARα and RARβ but complete for RARγ | activity at 0.01 µM [5]: 106% | activity at 1 µM [5]: 105% | activity at 100 µM [5]: 24.1%

CC1(C)CCC(C)(C)c2cc(/C=C(\c3ccc(-c4nnn[nH]4)cc3)C(F)(F)F)ccc21 [CB77402, (E) 5-[4-[1-trifluoromethyl-2-(5,6,7,8-tetrahydro-5,5,8,8-tetramethyl-2-naphthalenyl)-1-ethenyl]phenyl]-1H-tetrazole]
activity at 100 µM [1]: 15.4% | activity at 1 µM [1]: 118% | activity at 0.01 µM [1]: 128% | activity at 100 µM [2]: 10.7% | activity at 1 µM [2]: 86% | activity at 0.01 µM [2]: 93.1% | effect on cellular increase, A549 (in words) [2]: show activity on the increase of these two lineages | GAL4-RAR RARα transactivation (Gal4-RARα): 6% | GAL4-RAR RARβ transactivation (Gal4-RARβ): 0% | RAR-ERcassette RARα transactivation (RARα-ERcassette; 10^-6 M): 8% | RAR-ERcassette RARα transactivation (RARα-ERcassette; 10^-7 M): 1% | RAR-ERcassette RARα transactivation (RARα-ERcassette; 10^-8 M): 0% | RAR-ERcassette RARγ transactivation (RARγ-ERcassette; 10^-6 M): 8% | RAR-ERcassette RARγ transactivation (RARγ-ERcassette; 10^-7 M): 0% | RAR-ERcassette RARγ transactivation (RARγ-ERcassette; 10^-8 M): 0% | HRLN transactivation (in words) [3]: very feebly active | Emax [3]: 18% | Gal-RAR agonist profile (in words) [4]: not RAR agonists | activity at 0.01 µM [5]: 82.3% | activity at 1 µM [5]: 77.6% | activity at 100 µM [5]: 0.2% | effect on cellular increase, A-427 (in words) [5]: show activity on the increase of these two lineages

C/C(=C/c1ccc2c(c1)C(C)(C)CCC2(C)C)c1ccc(-c2nnn[nH]2)cc1 [CB92834]
activity at 100 µM [1]: 3.5% | activity at 1 µM [1]: 83.2% | activity at 0.01 µM [1]: 86.5% | effect on cellular increase, T-47D (in words) ([1]; MTT test): strongly inhibitive activity on the cellular increase of the two lineages | activity at 100 µM [2]: 14.4% | activity at 1 µM [2]: 109% | activity at 0.01 µM [2]: 105% | effect on cellular increase, A549 (in words) [2]: show activity on the increase of these two lineages | GAL4-RAR RARα transactivation (Gal4-RARα): 8% | GAL4-RAR RARβ transactivation (Gal4-RARβ): 0% | RAR-ERcassette RARα transactivation (RARα-ERcassette; 10^-6 M): 11% | RAR-ERcassette RARα transactivation (RARα-ERcassette; 10^-7 M): 9% | RAR-ERcassette RARα transactivation (RARα-ERcassette; 10^-8 M): 0% | RAR-ERcassette RARγ transactivation (RARγ-ERcassette; 10^-6 M): 0% | RAR-ERcassette RARγ transactivation (RARγ-ERcassette; 10^-7 M): 7% | RAR-ERcassette RARγ transactivation (RARγ-ERcassette; 10^-8 M): 2% | HRLN transactivation (in words) [3]: very feebly active | Emax [3]: 21% | Gal-RAR agonist profile (in words) [4]: not RAR agonists | activity at 0.01 µM [5]: 80.5% | activity at 1 µM [5]: 78.3% | activity at 100 µM [5]: 3.1% | effect on cellular increase, A-427 (in words) [5]: show activity on the increase of these two lineages
